Reference: patent US12371454B2, “Cyclic peptide compound having Kras inhibitory action” (priority 2019, dated 2025)
Starred links: 1 amine or outer side, 2 acyl side, 3 side chain; linkers in the order of their positions; H or OH if unused. Positions of bridges follow the written chain, without caps; N, C: chain ends. Non-standard residues stand in square brackets, D forms with d. Residues, ends and D or L forms follow the SMILES beside them. *: point of attachment. hPhe(3-Cl-4-CF3) = N[C@@H](CCc1ccc(C(F)(F)F)c(Cl)c1)C(=O)O; X88 = O=C([C@H](CCc1ccc(OC(F)(F)F)c(Cl)c1)N[*:1])[*:2]; X58 = O=C([C@H](CCc1ccc(OC(F)(F)F)c(F)c1)N[*:1])[*:2]; X60 = CC(C)Oc1cc(CC[C@H](N[*:1])C(=O)[*:2])cc(Cl)c1Cl; X57 = N#Cc1cc(CC[C@H](N[*:1])C(=O)[*:2])ccc1C(F)(F)F; X75 = O=C([C@H](CCc1ccc2c(c1)OC(F)(F)O2)N[*:1])[*:2]; X74 = O=C([C@H](CCc1cc(Cl)c(Cl)c(Cl)c1)N[*:1])[*:2]; X68 = O=C([C@H](CCc1ccc(OC(F)F)c(F)c1)N[*:1])[*:2]; X34 = O=C([C@H](CCc1ccc(C(F)(F)F)nc1)N[*:1])[*:2]; X16 = Cn1ccc2ccc(CC[C@H](N[*:1])C(=O)[*:2])cc21; X44 = O=C([C@H](CCc1ccc2ncccc2c1)N[*:1])[*:2]; X86 = O=C([C@H](CCc1ccc2occc2c1)N[*:1])[*:2]; X9 = O=C([C@H](CCc1ccc2cccnc2c1)N[*:1])[*:2]; NMePhe(4-Me) = CN[C@@H](Cc1ccc(C)cc1)C(=O)O; X72 = COc1ccc(CC[C@H](N[*:1])C(=O)[*:2])cn1; NMeGly(cPent) = CN[C@H](C(=O)O)C1CCCC1; NMeCha = CN[C@@H](CC1CCCCC1)C(=O)O; NMeChg = CN[C@H](C(=O)O)C1CCCCC1; X61 = O=C(CN(CC1COC1)[*:1])[*:2]; NMeD = CN[C@@H](CC(=O)O)C(=O)O; NMeL = CN[C@@H](CC(C)C)C(=O)O; NMeV = CN[C@H](C(=O)O)C(C)C; NMeS = CN[C@@H](CO)C(=O)O; Morpholide = C1CN(*)CCO1; NMeA = CN[C@@H](C)C(=O)O; Piperidide = C1CCN(*)CC1; Pyrrolidide = C1CCN(*)C1; Ac5c = NC1(C(=O)O)CCCC1; Aze = O=C(O)[C@@H]1CCN1; Sar = CNCC(=O)O; Propyl = CCC*

tested on: Human pancreatic cancer cell line AsPC-1; assay: Measurement of AsPC-1 cell growth inhibition (AsPC-1 CGI); type: cell-based; settings: 96 h
How it was run: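 AsPC-1 cells in 15% FBS RPMI-1640 were exposed to test compound for 96 hours at 37° C, with CellTiter-Glo as endpoint.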

Row | Compound | IC50
1 | CC[C@H](C)[C@@H]1NC(=O)[C@H](CC(C)C)N(C)C(=O)C[C@@H](C(=O)N2CCCC2)N(C)C(=O)[C@H](C(C)C)N(C)C(=O)C2(CCCC2)NC(=O)[C@@H]2CCCN2C(=O)[C@H](CCc2ccc(C(F)(F)F)c(Cl)c2)NC(=O)CN(C)C(=O)[C@H](Cc2ccc(C)cc2)N(C)C(=O)[C@@H]2CCN2C(=O)[C@H](C)N(C)C1=O [Compound 1866] ([NMeL]I[NMeA][Aze][NMePhe(4-Me)][Sar][hPhe(3-Cl-4-CF3)]P[Ac5c][NMeV][NMeD]-Pyrrolidide; lactam N-11) | 100 to 500 nM
2 | CCCOC[C@H]1C(=O)N(C)CC(=O)N[C@@H](CCc2ccc(C(F)(F)F)c(Cl)c2)C(=O)N2CCC[C@H]2C(=O)NC2(CCCC2)C(=O)N(C)[C@@H](C2CCCCC2)C(=O)N(C)[C@H](C(=O)N2CCOCC2)CC(=O)N(C)[C@@H](CC(C)C)C(=O)N[C@@H]([C@@H](C)CC)C(=O)N(C)CC(=O)N(C)CC(=O)N1C [Compound 1966] ([NMeL]I[Sar][Sar][NMeS](Propyl)[Sar][hPhe(3-Cl-4-CF3)]P[Ac5c][NMeChg][NMeD]-Morpholide; lactam N-11) | 50 to 100 nM
3 | CC[C@H](C)[C@@H]1NC(=O)[C@H](CC(C)C)N(C)C(=O)C[C@@H](C(=O)N2CCCCC2)N(C)C(=O)[C@H](C2CCCCC2)N(C)C(=O)C2(CCCC2)NC(=O)CN(CC2COC2)C(=O)[C@H](CCc2ccc(C(F)(F)F)c(Cl)c2)NC(=O)CN(C)C(=O)[C@H](CC2CCCCC2)N(C)C(=O)CN(C)C(=O)CN(C)C1=O [Compound 2031] ([NMeL]I[Sar][Sar][NMeCha][Sar][hPhe(3-Cl-4-CF3)][X61][Ac5c][NMeChg][NMeD]-Piperidide; lactam N-11) | 100 to 500 nM
4 | CC[C@H](C)[C@@H]1NC(=O)[C@H](CC(C)C)N(C)C(=O)C[C@@H](C(=O)N2CCCCC2)N(C)C(=O)[C@H](C2CCCC2)N(C)C(=O)C2(CCCC2)NC(=O)[C@@H]2CCCN2C(=O)[C@H](CCc2ccc(OC(F)(F)F)c(Cl)c2)NC(=O)CN(C)C(=O)[C@H](CC2CCCCC2)N(C)C(=O)[C@@H]2CCN2C(=O)[C@H](C)N(C)C1=O [Compound 2057] ([NMeL]I[NMeA][Aze][NMeCha][Sar][X88]P[Ac5c][NMeGly(cPent)][NMeD]-Piperidide; lactam N-11) | 50 to 100 nM
5 | CC[C@H](C)[C@@H]1NC(=O)[C@H](C)N(C)C(=O)C[C@@H](C(=O)N2CCCCC2)N(C)C(=O)[C@H](C2CCCCC2)N(C)C(=O)C2(CCCC2)NC(=O)[C@@H]2CCCN2C(=O)[C@H](CCc2cc(Cl)c(Cl)c(Cl)c2)NC(=O)CN(C)C(=O)[C@H](CC2CCCCC2)N(C)C(=O)CN(C)C(=O)CN(C)C1=O [Compound 2059, (3S,9S,18S,21S,25S,28S,34S)-28-cyclohexyl-9-(cyclohexylmethyl)-7,10,13,16,21,22,26,29-octamethyl-18-[(1S)-1-methylpropyl]-25-(piperidine-1-carbonyl)-3-[2-(3,4,5-trichlorophenyl)ethyl]spiro[1,4,7,10,13,16,19,22,26,29,32-undecazabicyclo[32.3.0]heptatriacontane-31,1′-cyclopentane]-2,5,8,11,14,17,20,23,27,30,33-undecone] ([NMeA]I[Sar][Sar][NMeCha][Sar][X74]P[Ac5c][NMeChg][NMeD]-Piperidide; lactam N-11) | 100 to 500 nM
6 | CC[C@H](C)[C@@H]1NC(=O)[C@H](C)N(C)C(=O)C[C@@H](C(=O)N2CCCCC2)N(C)C(=O)[C@H](C2CCCCC2)N(C)C(=O)C2(CCCC2)NC(=O)[C@@H]2CCCN2C(=O)[C@H](CCc2cc(Cl)c(Cl)c(OC(C)C)c2)NC(=O)CN(C)C(=O)[C@H](CC2CCCCC2)N(C)C(=O)CN(C)C(=O)CN(C)C1=O [Compound 2062] ([NMeA]I[Sar][Sar][NMeCha][Sar][X60]P[Ac5c][NMeChg][NMeD]-Piperidide; lactam N-11; C-terminus assumed) | > 500 nM
7 | CC[C@H](C)[C@@H]1NC(=O)[C@H](CC(C)C)N(C)C(=O)C[C@@H](C(=O)N2CCCCC2)N(C)C(=O)[C@H](C2CCCC2)N(C)C(=O)C2(CCCC2)NC(=O)[C@@H]2CCCN2C(=O)[C@H](CCc2ccc3occc3c2)NC(=O)CN(C)C(=O)[C@H](CC2CCCCC2)N(C)C(=O)[C@@H]2CCN2C(=O)[C@H](C)N(C)C1=O [Compound 2063] ([NMeL]I[NMeA][Aze][NMeCha][Sar][X86]P[Ac5c][NMeGly(cPent)][NMeD]-Piperidide; lactam N-11) | 50 to 100 nM
8 | CC[C@H](C)[C@@H]1NC(=O)[C@H](CC(C)C)N(C)C(=O)C[C@@H](C(=O)N2CCCCC2)N(C)C(=O)[C@H](C2CCCC2)N(C)C(=O)C2(CCCC2)NC(=O)[C@@H]2CCCN2C(=O)[C@H](CCc2ccc3ccn(C)c3c2)NC(=O)CN(C)C(=O)[C@H](CC2CCCCC2)N(C)C(=O)[C@@H]2CCN2C(=O)[C@H](C)N(C)C1=O [Compound 2065] ([NMeL]I[NMeA][Aze][NMeCha][Sar][X16]P[Ac5c][NMeGly(cPent)][NMeD]-Piperidide; lactam N-11) | 100 to 500 nM
9 | CC[C@H](C)[C@@H]1NC(=O)[C@H](CC(C)C)N(C)C(=O)C[C@@H](C(=O)N2CCCCC2)N(C)C(=O)[C@H](C2CCCC2)N(C)C(=O)C2(CCCC2)NC(=O)[C@@H]2CCCN2C(=O)[C@H](CCc2ccc(OC(F)(F)F)c(F)c2)NC(=O)CN(C)C(=O)[C@H](CC2CCCCC2)N(C)C(=O)[C@@H]2CCN2C(=O)[C@H](C)N(C)C1=O [Compound 2067] ([NMeL]I[NMeA][Aze][NMeCha][Sar][X58]P[Ac5c][NMeGly(cPent)][NMeD]-Piperidide; lactam N-11) | 20 to 50 nM
10 | CC[C@H](C)[C@@H]1NC(=O)[C@H](CC(C)C)N(C)C(=O)C[C@@H](C(=O)N2CCCCC2)N(C)C(=O)[C@H](C2CCCC2)N(C)C(=O)C2(CCCC2)NC(=O)[C@@H]2CCCN2C(=O)[C@H](CCc2ccc3ncccc3c2)NC(=O)CN(C)C(=O)[C@H](CC2CCCCC2)N(C)C(=O)[C@@H]2CCN2C(=O)[C@H](C)N(C)C1=O [Compound 2070] ([NMeL]I[NMeA][Aze][NMeCha][Sar][X44]P[Ac5c][NMeGly(cPent)][NMeD]-Piperidide; lactam N-11) | > 500 nM
11 | CC[C@H](C)[C@@H]1NC(=O)[C@H](CC(C)C)N(C)C(=O)C[C@@H](C(=O)N2CCCCC2)N(C)C(=O)[C@H](C2CCCC2)N(C)C(=O)C2(CCCC2)NC(=O)[C@@H]2CCCN2C(=O)[C@H](CCc2ccc(C(F)(F)F)c(C#N)c2)NC(=O)CN(C)C(=O)[C@H](CC2CCCCC2)N(C)C(=O)[C@@H]2CCN2C(=O)[C@H](C)N(C)C1=O [Compound 2072] ([NMeL]I[NMeA][Aze][NMeCha][Sar][X57]P[Ac5c][NMeGly(cPent)][NMeD]-Piperidide; lactam N-11) | 20 to 50 nM
12 | CC[C@H](C)[C@@H]1NC(=O)[C@H](CC(C)C)N(C)C(=O)C[C@@H](C(=O)N2CCCCC2)N(C)C(=O)[C@H](C2CCCC2)N(C)C(=O)C2(CCCC2)NC(=O)[C@@H]2CCCN2C(=O)[C@H](CCc2ccc3c(c2)OC(F)(F)O3)NC(=O)CN(C)C(=O)[C@H](CC2CCCCC2)N(C)C(=O)[C@@H]2CCN2C(=O)[C@H](C)N(C)C1=O [Compound 2074] ([NMeL]I[NMeA][Aze][NMeCha][Sar][X75]P[Ac5c][NMeGly(cPent)][NMeD]-Piperidide; lactam N-11) | 50 to 100 nM
13 | CC[C@H](C)[C@@H]1NC(=O)[C@H](CC(C)C)N(C)C(=O)C[C@@H](C(=O)N2CCCCC2)N(C)C(=O)[C@H](C2CCCC2)N(C)C(=O)C2(CCCC2)NC(=O)[C@@H]2CCCN2C(=O)[C@H](CCc2ccc(OC(F)F)c(F)c2)NC(=O)CN(C)C(=O)[C@H](CC2CCCCC2)N(C)C(=O)[C@@H]2CCN2C(=O)[C@H](C)N(C)C1=O [Compound 2076] ([NMeL]I[NMeA][Aze][NMeCha][Sar][X68]P[Ac5c][NMeGly(cPent)][NMeD]-Piperidide; lactam N-11) | 50 to 100 nM
14 | CC[C@H](C)[C@@H]1NC(=O)[C@H](CC(C)C)N(C)C(=O)C[C@@H](C(=O)N2CCCCC2)N(C)C(=O)[C@H](C2CCCC2)N(C)C(=O)C2(CCCC2)NC(=O)[C@@H]2CCCN2C(=O)[C@H](CCc2ccc3cccnc3c2)NC(=O)CN(C)C(=O)[C@H](CC2CCCCC2)N(C)C(=O)[C@@H]2CCN2C(=O)[C@H](C)N(C)C1=O [Compound 2077] ([NMeL]I[NMeA][Aze][NMeCha][Sar][X9]P[Ac5c][NMeGly(cPent)][NMeD]-Piperidide; lactam N-11) | 100 to 500 nM
15 | CC[C@H](C)[C@@H]1NC(=O)[C@H](CC(C)C)N(C)C(=O)C[C@@H](C(=O)N2CCCCC2)N(C)C(=O)[C@H](C2CCCC2)N(C)C(=O)C2(CCCC2)NC(=O)[C@@H]2CCCN2C(=O)[C@H](CCc2ccc(C(F)(F)F)nc2)NC(=O)CN(C)C(=O)[C@H](CC2CCCCC2)N(C)C(=O)[C@@H]2CCN2C(=O)[C@H](C)N(C)C1=O [Compound 2078] ([NMeL]I[NMeA][Aze][NMeCha][Sar][X34]P[Ac5c][NMeGly(cPent)][NMeD]-Piperidide; lactam N-11) | 100 to 500 nM
16 | CC[C@H](C)[C@@H]1NC(=O)[C@H](C)N(C)C(=O)C[C@@H](C(=O)N2CCCCC2)N(C)C(=O)[C@H](C(C)C)N(C)C(=O)C2(CCCC2)NC(=O)[C@@H]2CCCN2C(=O)[C@H](CCc2cc(Cl)c(Cl)c(OC(C)C)c2)NC(=O)CN(C)C(=O)[C@H](CC2CCCCC2)N(C)C(=O)CN(C)C(=O)CN(C)C1=O [Compound 2079] ([NMeA]I[Sar][Sar][NMeCha][Sar][X60]P[Ac5c][NMeV][NMeD]-Piperidide; lactam N-11; C-terminus assumed) | > 500 nM
17 | CC[C@H](C)[C@@H]1NC(=O)[C@H](CC(C)C)N(C)C(=O)C[C@@H](C(=O)N2CCCCC2)N(C)C(=O)[C@H](C2CCCC2)N(C)C(=O)C2(CCCC2)NC(=O)[C@@H]2CCCN2C(=O)[C@H](CCc2ccc(OC)nc2)NC(=O)CN(C)C(=O)[C@H](CC2CCCCC2)N(C)C(=O)[C@@H]2CCN2C(=O)[C@H](C)N(C)C1=O [Compound 2084] ([NMeL]I[NMeA][Aze][NMeCha][Sar][X72]P[Ac5c][NMeGly(cPent)][NMeD]-Piperidide; lactam N-11) | 100 to 500 nM
